Experimental data taken from paper PMC6408513, “A Novel Lactate Dehydrogenase Inhibitor, 1-(Phenylseleno)-4-(Trifluoromethyl) Benzene, Suppresses Tumor Growth through Apoptotic Cell Death” (Scientific Reports, 2019).

Tests used:
[1] = biological target: T1, lactate dehydrogenase A (LDHA) (Homo sapiens, UniProt P00338); assay: in vitro LDH activity assay by NADH fluorescence; Michaelis-Menten/Lineweaver-Burk; inhibits […]-pyruvate binding; format: biochemical; set-up: purified recombinant human LDHA
[2] = biological target: T1, lactate dehydrogenase A (LDHA); assay: […]-pyruvate radioligand binding to bead-bound LDHA, competed by unlabeled pyruvate; set-up: purified His tagged-LDHA
[3] = biological target: T1, lactate dehydrogenase A (LDHA); assay: in vitro LDH activity assay by NADH fluorescence; format: biochemical; set-up: purified recombinant human LDHA

## FC(F)(F)c1ccc([Se]c2ccccc2)cc1 [PSTMB, 1-(phenylseleno)-4-(trifluoromethyl)benzene]
[1]
  IC50: 145 nM

## CC(=O)C(=O)O [pyruvate]
[2]
  14C-pyruvate radioligand binding to bead-bound LDHA, competed by unlabeled pyruv: The binding of pyruvate to LDHA was determined using C^14-labeled pyruvate.

## c1ccc([Se]C2CCSC2)cc1 (stereo not drawn) [tetrahydro-3-(phenylseleno) thiophene]
[3]
  in vitro LDH activity assay by NADH fluorescence: tetrahydro-3-(phenylseleno) thiophene, and 1-methoxy-4-[(phenylmethyl)seleno]benzene had inhibitory effects on LDHA activity
